Source: US20250382344A1, “Soluble GLP1/GIP/NPY2 Receptor Triple Agonists” (Boehringer Ingelheim International GmH, priority 2024, published 2025)
Like-named read-outs stand apart in the source and are kept apart here.

Experiments:
Normal NMRI Mice = assay: Effect on acute food intake in normal NMRI mice; format: in vivo; details: male NMRI mice, single subcutaneous dose 100 nmol/kg, 24 hours food intake normalized to vehicle group
Experimental: Male NMRI mice were obtained from Janvier (Janvier Labs, France) or from Charles River (Charles River Research Models & Services Germany GmbH) at the age of 3 weeks. The animals get a microchip (Datamars, Slim Microchip T-SL) for individual identification after delivery. They were housed with 4 mice per cage under a 12/12 dark-light cycle, light off at 3 p.m. Room temperature was controlled to 21° C.+/−1° C. and humidity 60%+/−20%. Mice had ad libitum access to regular rodent chow (KLIBA Nafag 3040 or Altromin 1324, Brogaarden, Denmark) and tap water.
Latest transfer into the HM2-System of MBRose, Denmark (real-time monitoring system of food- and water intake) of the animals 5 days before study start, to allow acclimatization to experimental conditions. As the animals were uniquely identified with the microchips, each individual animal was identified by its own microchip upon entry and exit from the food channel via antennae. Randomization of the mice for each study group (n=8; age earliest 6 weeks old) was based on food intake (middle of last three days 24 h-interval) and bodyweight directly before start of the study. A vehicle treated (50 mM phosphate buffer pH 7.4 with 3.5% mannitol) group was included in each experiment. To have the same nutrition standard for each animal the food access was locked eight hours before dark phase. One hour before night, the animals were once treated subcutaneously with the test peptide. Food intake was reported hourly for a period of 24 hours.

[1] = Mouse PK after intravenous application; format: in vivo; details: plasma, male NMRI mice, intravenous 30-60 nmol/kg, non-compartmental analysis
How it was run: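 Male NMRI mice (30–40 g) dosed 30-60 nmol/kg by tail vein in 50 mM phosphate buffer pH 7.4/3.5% mannitol. Saphenous EDTA blood sampled from conscious animals up to 56 h; plasma peptide quantified by LC-MS. Parameters from non-compartmental analysis of individual profiles.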

hGLP1R = biological target: T1, hGLP1R (Homo sapiens, UniProt P43220); assay: hGLP1R CreLuc assay in 0.5% and 100% plasma (HEK-293 CRE-luciferase reporter cells); format: cell-based; details: HEK-293 reporter cells
T1 construct: expressed in transfected cells; host or cells: HEK-293 CRE-luciferase reporter cells

[2] = Solubility in 0.1 M phosphate buffer at pH 7; format: physicochemical; details: 0.1 M phosphate buffer at pH 7, 10 mg/mL final peptide concentration, shaking 2 hours at room temperature, peptides as TFA-salts; measured sample pH 6.5-7.0
hGIPR = biological target: T2, hGIPR (Homo sapiens, UniProt P48546); assay: hGIPR CreLuc assay in 0.5% and 100% plasma (CHO CRE-luciferase reporter cells); format: cell-based
T2 construct: expressed in transfected cells; host or cells: CHO CRE-luciferase reporter cells
T2 sequence (P48546 22-466): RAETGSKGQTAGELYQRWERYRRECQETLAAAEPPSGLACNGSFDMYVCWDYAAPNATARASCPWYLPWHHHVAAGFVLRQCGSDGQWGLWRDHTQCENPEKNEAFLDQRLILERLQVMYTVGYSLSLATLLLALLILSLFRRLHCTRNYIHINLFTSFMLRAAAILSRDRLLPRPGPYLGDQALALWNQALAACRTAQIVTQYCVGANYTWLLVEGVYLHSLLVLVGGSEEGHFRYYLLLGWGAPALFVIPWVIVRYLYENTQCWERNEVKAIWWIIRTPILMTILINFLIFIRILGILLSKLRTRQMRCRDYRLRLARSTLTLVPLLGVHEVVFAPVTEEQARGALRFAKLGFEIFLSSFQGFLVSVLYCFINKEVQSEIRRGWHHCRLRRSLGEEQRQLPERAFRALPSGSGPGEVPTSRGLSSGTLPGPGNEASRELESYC

hNPY2R = biological target: T3, hNPY2R (Homo sapiens, UniProt P49146); assay: hNPY2R CreLuc assay in 0.5% and 100% plasma (HEK-293 CRE-luciferase reporter cells); format: cell-based; details: 0.5% human plasma, HEK-293 reporter cells, read-out: hNPY2R 0.5% hP
T3 construct: expressed in transfected cells; host or cells: HEK-293 CRE-luciferase reporter cells
T3 sequence (P49146 1-381): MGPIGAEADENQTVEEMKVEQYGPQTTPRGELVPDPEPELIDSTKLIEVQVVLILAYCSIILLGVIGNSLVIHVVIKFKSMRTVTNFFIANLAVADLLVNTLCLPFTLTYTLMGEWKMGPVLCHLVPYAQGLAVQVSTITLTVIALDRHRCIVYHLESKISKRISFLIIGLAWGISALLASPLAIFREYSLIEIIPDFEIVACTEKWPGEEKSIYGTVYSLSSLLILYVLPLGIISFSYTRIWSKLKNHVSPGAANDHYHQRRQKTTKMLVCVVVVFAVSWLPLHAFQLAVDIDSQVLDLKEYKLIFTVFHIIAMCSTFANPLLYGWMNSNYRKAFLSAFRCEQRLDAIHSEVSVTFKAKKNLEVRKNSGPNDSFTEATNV

[3] = 0.5% human plasma, read-out: hGLP1R 0.5% hP
[4] = 0.5% human plasma, read-out: hGIPR 0.5% hP
[5] = 100% human plasma, read-out: hGIPR 100% hP
[6] = 100% human plasma, read-out: hGLP1R 100% hP

T1 sequence (P43220 24-463): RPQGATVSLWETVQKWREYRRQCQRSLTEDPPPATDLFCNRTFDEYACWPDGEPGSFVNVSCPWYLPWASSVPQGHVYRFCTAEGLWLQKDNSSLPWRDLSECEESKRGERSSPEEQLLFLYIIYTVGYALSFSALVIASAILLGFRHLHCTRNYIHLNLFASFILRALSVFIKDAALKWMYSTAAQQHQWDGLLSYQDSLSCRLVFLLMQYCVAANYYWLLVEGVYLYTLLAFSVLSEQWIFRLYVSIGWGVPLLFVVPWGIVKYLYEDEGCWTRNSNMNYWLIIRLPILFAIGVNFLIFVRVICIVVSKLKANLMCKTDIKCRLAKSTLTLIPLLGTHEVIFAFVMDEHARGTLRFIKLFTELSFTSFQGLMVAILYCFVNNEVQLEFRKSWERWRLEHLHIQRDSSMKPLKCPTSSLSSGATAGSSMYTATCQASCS

In the case of `CC[C@H](C)[C@H](NC(=O)[C@H](Cc1ccccc1)NC(=O)[C@H](C)NC(=O)C(C)(C)NC(=O)[C@H](CCC(N)=O)NC(=O)[C@H](C)NC(=O)[C@H](CCC(N)=O)NC(=O)[C@H](CCCCN)NC(=O)[C@H](CCC(=O)O)NC(=O)[C@H](CC(C)C)NC(=O)[C@](C)(CC(C)C)NC(=O)[C@@H](NC(=O)[C@H](CO)NC(=O)[C@H](Cc1ccc(O)cc1)NC(=O)[C@H](CC(=O)O)NC(=O)[C@H](CO)NC(=O)[C@@H](NC(=O)[C@H](Cc1ccccc1)NC(=O)[C@@H](NC(=O)CNC(=O)[C@H](CCC(=O)O)NC(=O)C(C)(C)NC(=O)[C@@H](N)Cc1ccc(O)cc1)[C@@H](C)O)[C@@H](C)O)[C@@H](C)CC)C(=O)N[C@@H](CCCNC(=N)N)C(=O)N[C@@H](Cc1c[nH]cn1)C(=O)N[C@@H](CC(C)C)C(=O)N[C@H](C(=O)N[C@@H](CC(N)=O)C(=O)N[C@@H](CCCCNC(=O)[C@@H](N)CCCCNC(=O)CC[C@H](NC(=O)CC[C@H](NC(=O)CC[C@H](NC(=O)CC[C@H](NC(=O)CC[C@H](NC(=O)CC[C@H](NC(=O)CCCCCCCCCCCCCCCCCCC(=O)O)C(=O)O)C(=O)O)C(=O)O)C(=O)O)C(=O)O)C(=O)O)C(=O)NC(C)(C)C(=O)N[C@H](C(=O)N[C@@H](CCCNC(=N)N)C(=O)N[C@@H](CCC(N)=O)C(=O)N[C@@H](CCCNC(=N)N)C(=O)N[C@@H](Cc1ccc(O)cc1)C(N)=O)[C@@H](C)O)[C@@H](C)CC` [Compound 53, Y-Aib-E-G-T-F-T-S-D-Y-S-I-aMeL-L-E-K-Q-A-Q-Aib-A-F-I-R-H-L-I-N-K(1,3)-Aib-T-R-Q-R-Y-NH2.C20DA-gGlu-gGlu-gGlu-gGlu-gGlu-gGlu-eLys(1,2)], the “Acute Food Intake 24 hours 100 nmol/kg [% CTL]” value (Normal NMRI Mice) is reported as 47 % CTL, the MRT [1] is reported as 14.4 h and the EC50 (hGLP1R; [3]) is reported as 0.3 nM. For the same compound, the solubility at 2 h [2] was 10000 µg/mL, the EC50 (hGIPR; [4]) was 0.1 nM and the EC50 (hGIPR; [5]) was 1.7 nM.

With `CC[C@H](C)[C@H](NC(=O)[C@H](CC(C)C)NC(=O)[C@H](Cc1c[nH]cn1)NC(=O)[C@H](CCCNC(=N)N)NC(=O)[C@@H](NC(=O)[C@H](Cc1ccccc1)NC(=O)[C@H](C)NC(=O)C(C)(C)NC(=O)[C@H](CCC(N)=O)NC(=O)[C@H](C)NC(=O)[C@H](CCC(N)=O)NC(=O)[C@H](CCCCN)NC(=O)[C@H](CCC(=O)O)NC(=O)[C@H](CC(C)C)NC(=O)C(C)(C)NC(=O)[C@@H](NC(=O)[C@H](CO)NC(=O)[C@H](Cc1ccc(O)cc1)NC(=O)[C@H](CC(=O)O)NC(=O)[C@H](CO)NC(=O)[C@@H](NC(=O)[C@H](Cc1ccccc1)NC(=O)[C@@H](NC(=O)CNC(=O)[C@H](CCC(=O)O)NC(=O)C(C)(C)NC(=O)[C@@H](N)Cc1ccc(O)cc1)[C@@H](C)O)[C@@H](C)O)[C@@H](C)CC)C(C)C)C(=O)N[C@@H](CC(N)=O)C(=O)N[C@@H](CCCCNC(=O)CCCCCNC(=O)CCCCCNC(=O)CC[C@H](NC(=O)CC[C@H](NC(=O)CC[C@H](NC(=O)CC[C@H](NC(=O)CC[C@H](NC(=O)CCCCCCCCCCCCCCCCCCC(=O)O)C(=O)O)C(=O)O)C(=O)O)C(=O)O)C(=O)O)C(=O)NC(C)(C)C(=O)N[C@H](C(=O)N[C@@H](CCCNC(=N)N)C(=O)N[C@@H](CCC(N)=O)C(=O)N[C@@H](CCCNC(=N)N)C(=O)N[C@@H](Cc1ccc(O)cc1)C(N)=O)[C@@H](C)O` [Compound 106, Y-Aib-E-G-T-F-T-S-D-Y-S-I-Aib-L-E-K-Q-A-Q-Aib-A-F-V-R-H-L-I-N-K(1,3)-Aib-T-R-Q-R-Y-NH2.C20DA-gGlu-gGlu-gGlu-gGlu-gGlu-AHX-AHX(1,2)] the “Acute Food Intake 24 hours 100 nmol/kg [% CTL]” value (Normal NMRI Mice) was 60 % CTL, the MRT [1] was 12.8 h and the EC50 (hNPY2R) was 7.1 nM. For the same compound, the solubility at 2 h [2] was 9200 µg/mL and the EC50 (hGIPR; [4]) was 0.2 nM.

With `CC[C@H](C)[C@H](NC(=O)[C@H](CC(C)C)NC(=O)[C@H](Cc1c[nH]cn1)NC(=O)[C@H](CCCNC(=N)N)NC(=O)[C@@H](NC(=O)[C@H](Cc1ccccc1)NC(=O)[C@H](C)NC(=O)C(C)(C)NC(=O)[C@H](CCC(N)=O)NC(=O)[C@H](C)NC(=O)[C@H](CCC(N)=O)NC(=O)[C@H](CCCCN)NC(=O)[C@H](CCC(=O)O)NC(=O)[C@H](CC(C)C)NC(=O)[C@](C)(CC(C)C)NC(=O)[C@@H](NC(=O)[C@H](CO)NC(=O)[C@H](Cc1ccc(O)cc1)NC(=O)[C@H](CC(=O)O)NC(=O)[C@H](CO)NC(=O)[C@@H](NC(=O)[C@H](Cc1ccccc1)NC(=O)[C@@H](NC(=O)CNC(=O)[C@H](CCC(=O)O)NC(=O)C(C)(C)NC(=O)[C@@H](N)Cc1ccc(O)cc1)[C@@H](C)O)[C@@H](C)O)[C@@H](C)CC)C(C)C)C(=O)N[C@@H](CC(N)=O)C(=O)N[C@@H](CCCCNC(=O)[C@@H](N)CCCCNC(=O)CC[C@H](NC(=O)CC[C@H](NC(=O)CC[C@H](NC(=O)CC[C@H](NC(=O)CC[C@H](NC(=O)CC[C@H](NC(=O)CCCCCCCCCCCCCCCCC(=O)O)C(=O)O)C(=O)O)C(=O)O)C(=O)O)C(=O)O)C(=O)O)C(=O)NC(C)(C)C(=O)N[C@H](C(=O)N[C@@H](CCCNC(=N)N)C(=O)N[C@@H](CCC(N)=O)C(=O)N[C@@H](CCCNC(=N)N)C(=O)N[C@@H](Cc1ccc(O)cc1)C(N)=O)[C@@H](C)O` [Compound 119, Y-Aib-E-G-T-F-T-S-D-Y-S-I-aMeL-L-E-K-Q-A-Q-Aib-A-F-V-R-H-L-I-N-K(1,3)-Aib-T-R-Q-R-Y-NH2.C18DA-gGlu-gGlu-gGlu-gGlu-gGlu-gGlu-eLys(1,2)] the “Acute Food Intake 24 hours 100 nmol/kg [% CTL]” value (Normal NMRI Mice) was 34 % CTL, the MRT [1] was 9.6 h and the EC50 (hGLP1R; [3]) was 0.1 nM. It also gave an EC50 (hGLP1R; [6]) of 0.4 nM, a solubility at 2 h [2] of 9000 µg/mL and an EC50 (hGIPR; [4]) of 0.1 nM. It also gave an EC50 (hGIPR; [5]) of 0.8 nM.

For `CC[C@H](C)[C@H](NC(=O)[C@H](CC(C)C)NC(=O)[C@H](Cc1c[nH]cn1)NC(=O)[C@H](CCCNC(=N)N)NC(=O)[C@@H](NC(=O)[C@H](Cc1ccccc1)NC(=O)[C@H](C)NC(=O)C(C)(C)NC(=O)[C@H](CCC(N)=O)NC(=O)[C@H](C)NC(=O)[C@H](CCC(N)=O)NC(=O)[C@H](CCCCN)NC(=O)[C@H](CCC(=O)O)NC(=O)[C@H](CC(C)C)NC(=O)[C@](C)(CC(C)C)NC(=O)[C@@H](NC(=O)[C@H](CO)NC(=O)[C@H](Cc1ccc(O)cc1)NC(=O)[C@H](CC(=O)O)NC(=O)[C@H](CO)NC(=O)[C@@H](NC(=O)[C@H](Cc1ccccc1)NC(=O)[C@@H](NC(=O)CNC(=O)[C@H](CCC(=O)O)NC(=O)C(C)(C)NC(=O)[C@@H](N)Cc1ccc(O)cc1)[C@@H](C)O)[C@@H](C)O)[C@@H](C)CC)C(C)C)C(=O)N[C@@H](CC(N)=O)C(=O)N[C@@H](CCCCNC(=O)[C@@H](N)CCCCNC(=O)CC[C@H](NC(=O)CC[C@H](NC(=O)CC[C@H](NC(=O)CC[C@H](NC(=O)CC[C@H](NC(=O)CC[C@H](NC(=O)CCCCCCCCCCCCCCCCCCC(=O)O)C(=O)O)C(=O)O)C(=O)O)C(=O)O)C(=O)O)C(=O)O)C(=O)NC(C)(C)C(=O)N[C@H](C(=O)N[C@@H](CCCNC(=N)N)C(=O)N[C@@H](CCC(N)=O)C(=O)N[C@@H](CCCNC(=N)N)C(=O)N[C@@H](Cc1ccc(O)cc1)C(N)=O)[C@@H](C)O` [Compound 150, Y-Aib-E-G-T-F-T-S-D-Y-S-I-aMeL-L-E-K-Q-A-Q-Aib-A-F-V-R-H-L-I-N-K(1,3)-Aib-T-R-Q-R-Y-NH2.C20DA-gGlu-gGlu-gGlu-gGlu-gGlu-gGlu-eLys(1,2)], the “Acute Food Intake 24 hours 100 nmol/kg [% CTL]” value (Normal NMRI Mice) was 46 % CTL, the MRT [1] was 15.9 h and the EC50 (hGLP1R; [3]) was 0.5 nM. The EC50 (hGLP1R; [6]) was 1.7 nM, the solubility at 2 h [2] was 4800 µg/mL and the EC50 (hGIPR; [4]) was 0.1 nM. For the same compound, the EC50 (hGIPR; [5]) was 2.8 nM.
